Results taken from patent publication US20250092065A1, “2-(INDAZOL-5-YL)-6-(PIPERIDIN-4-YL)-1,7-NAPHTHYRIDINE DERIVATIVES AND RELATED COMPOUNDS AS MODULATORS FOR SPLICING NUCLEIC ACIDS AND FOR THE TREATMENT OF PROLIFERATIVE DISEASES” (REMIX THERAPEUTICS INC., priority 2022, published 2025).

Columns and labels:
[1] = test system: HTT; test: HiBiT protein abundance assay, HTT (K562 HiBiT knock-in); format: cell-based, human; conditions: HiBiT knock-in K562 cells, 24 hours, top dose 10 μM
In short: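 Luminescence readout: Nano-Glo HiBiT lytic detection after 24 h compound exposure of K562 HiBiT knock-in cells, 10000 cells/well. Dosing 10-pt, 3-fold, top 10 μM final. % response vs untreated parental K562 and DMSO controls; 4PL fit, IC50 = concentration giving 50% protein abundance.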

[2] = test system: Target C; test: RT-qPCR canonical junction panel assay, Target C mRNA; format: cell-based; conditions: Table 4, read-out: Target C IC50 (decrease in CJ mRNA levels)
In short: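 IC50 is the concentration giving 50% CJ decrease, from a 4-parameter logistic fit of percent response; response derived from ΔΔCt against housekeeper and DMSO over a fixed ΔCt window, with canonical exon-junction qPCR in compound-treated K562 or A673 cells.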

Compound | IC50 [1] | IC50 [2]
Cn1cc2cc(-c3ccc4nc([C@@H]5CCNC6(CC6)C5)ccc4n3)c(O)cc2n1 (single isomer, unassigned) [Compound 495] | < 100 nM | 100 to 1000 nM
Cn1cc2cc(-c3ccc4nc([C@H]5CCNC6(CC6)C5)ccc4n3)c(O)cc2n1 (single isomer, unassigned) [Compound 496] | < 100 nM | 100 to 1000 nM
Cc1nc2cc(O)c(-c3ccc4nc([C@H]5CCNC6(CC6)C5)ccc4n3)cc2o1 (single isomer, unassigned) [Compound 497] | < 100 nM | < 100 nM
Cc1nc2cc(O)c(-c3ccc4nc([C@@H]5CCNC6(CC6)C5)ccc4n3)cc2o1 (single isomer, unassigned) [Compound 498] | < 100 nM | 100 to 1000 nM
CN[C@@H]1CCN(c2ccc3nc(-c4cn5cc(C)nc5c(C)c4O)ncc3n2)C1 (single isomer, unassigned) [Compound 504] | 100 to 1000 nM | 100 to 1000 nM
CNC(=O)c1nc(-c2cc3cn(C)nc3c(C)c2O)nc2ccc(N3C[C@@H](C)N[C@H](C)C3)cc12 (single isomer, unassigned) [Compound 653] | < 100 nM | 100 to 1000 nM
CNC(=O)c1nc(-c2cc3cn(C)nc3cc2O)nc2ccc(N3C[C@@H](C)N[C@H](C)C3)cc12 (single isomer, unassigned) [Compound 677] | 100 to 1000 nM | 1000 to 10000 nM
Cc1nc2cc(O)c(-c3ccc4nc(N5CCNC(C(C)(C)C)C5)ccc4n3)cc2o1 (stereo not drawn) [Compound 492] | 100 to 1000 nM | 1000 to 10000 nM
Cc1nc2cc(O)c(-c3ccc4nc(N5CC[C@@H](N(C)C(C)(C)C)C5)ccc4n3)cc2o1 [Compound 493] | < 100 nM | < 100 nM
CNC(=O)c1nc(-c2cc(F)c3nc(C)cn3c2)nc2ccc(N3CCNCC3)cc12 [Compound 505, 2-{8-fluoro-2-methylimidazo[1,2-a]pyridin-6-yl}-N-methyl-6-(piperazin-1-yl) quinazoline-4-carboxamide] | 100 to 1000 nM | 100 to 1000 nM
CNC(=O)c1nc(-c2cc3cn(C)nc3c(F)c2O)nc2ccc(N3CCNCC3)cc12 [Compound 506, 2-(7-fluoro-6-hydroxy-2-methylindazol-5-yl)-N-methyl-6-(piperazin-1-yl)quinazoline-4-carboxamide] | 100 to 1000 nM | 100 to 1000 nM
CNC(=O)c1nc(-c2cc3cn(C)nc3c(C)c2O)nc2ccc(N3CCC(N(C)C)CC3)cc12 [Compound 507, 6-[4-(dimethylamino)piperidin-1-yl]-2-(6-hydroxy-2,7-dimethylindazol-5-yl)-N-methylquinazoline-4-carboxamide] | 100 to 1000 nM | 1000 to 10000 nM
CNc1nc(-c2cc3cn(C)nc3c(C)c2O)nc2ccc(N3CCNCC3)cc12 [Compound 508, 2,7-dimethyl-5-[4-(methylamino)-6-(piperazin-1-yl)quinazolin-2-yl]indazol-6-ol] | > 10000 nM | > 10000 nM
CNC(=O)c1nc(-c2cc3cn(C)nc3c(C)c2O)nc2ccc(N3CCC(NC)C3)cc12 (stereo not drawn) [Compound 510, 2-(6-hydroxy-2,7-dimethylindazol-5-yl)-N-methyl-6-[3-(methylamino)pyrrolidin-1-yl]quinazoline-4-carboxamide] | < 100 nM | 100 to 1000 nM
CNC(=O)c1nc(-c2cc3cn(C)nc3c(C)c2O)nc2ccc(N3C[C@@H](C)N[C@@H](C)C3)cc12 [Compound 511, 6-[(3R,5S)-3,5-dimethylpiperazin-1-yl]-2-(6-hydroxy-2,7-dimethylindazol-5-yl)-N-methylquinazoline-4-carboxamide] | 100 to 1000 nM | 1000 to 10000 nM
CC(=O)c1nc(-c2cc3cn(C)nc3c(F)c2O)nc2ccc(N3CCNCC3)cc12 [Compound 513, 1-(2-(7-fluoro-6-hydroxy-2-methyl-2H-indazol-5-yl)-6-(piperazin-1-yl)quinazolin-4-yl)ethan-1-one 2,2,2-trifluoroacetate] | 100 to 1000 nM | 1000 to 10000 nM
Cn1cc2cc(-c3nc(C#N)c4cc(N5CCNCC5)ccc4n3)c(O)c(F)c2n1 [Compound 514, 2-(7-fluoro-6-hydroxy-2-methylindazol-5-yl)-6-(piperazin-1-yl) quinazoline-4-carbonitrile; trifluoroacetic acid] | 100 to 1000 nM | 1000 to 10000 nM
Cc1c(O)c(-c2ccc3cc(N4CCNCC4)cc(F)c3n2)cc2cn(C)nc12 [Compound 515, 5-[8-fluoro-6-(piperazin-1-yl)quinolin-2-yl]-2,7-dimethylindazol-6-ol] | < 100 nM | 100 to 1000 nM

Other lines, results leading:

IC50 [1] | IC50 [2] | Compound
100 to 1000 nM | 1000 to 10000 nM | CNC(=O)c1nc(-c2cc3cn(C)nc3c(C)c2O)nc2ccc(N3CCN[C@@H](C)C3)cc12 (single isomer, unassigned) [Compound 512]
< 100 nM | 100 to 1000 nM | CN[C@@H]1CCN(c2ccc3nc(-c4cc5cn(C)nc5c(C)c4O)ncc3c2)C1 (single isomer, unassigned) [Compound 521]
100 to 1000 nM | 100 to 1000 nM | Cc1c(O)c(-c2ncc3cc(N4C[C@@H](C)N[C@H](C)C4)ccc3n2)cc2cn(C)nc12 (single isomer, unassigned) [Compound 661]
100 to 1000 nM | 1000 to 10000 nM | CNC(=O)c1nc(-c2cc3cn(C)nc3c(F)c2O)nc2ccc(N3C[C@@H](C)N[C@H](C)C3)cc12 (single isomer, unassigned) [Compound 668]
100 to 1000 nM | 1000 to 10000 nM | CNC(=O)c1nc(-c2cc3cn(C)nc3c(F)c2O)nc2ccc(N3C[C@H](C)N[C@@H](C)C3)cc12 (single isomer, unassigned) [Compound 669]
100 to 1000 nM | > 10000 nM | CNC(=O)c1nc(-c2cc3cn(C)nc3cc2O)nc2ccc(N3C[C@H](C)N[C@@H](C)C3)cc12 (single isomer, unassigned) [Compound 676]
100 to 1000 nM | 100 to 1000 nM | Cc1cn2cc(-c3ccc4cc(N5C[C@H](C)N[C@@H](C)C5)cc(F)c4n3)cc(F)c2n1 (single isomer, unassigned) [Compound 705, 2,2,2-trifluoroacetate]
< 100 nM | 100 to 1000 nM | Cn1cc2cc(-c3ncc4nc(C5CCNCC5)ccc4n3)c(O)c(F)c2n1 [Compound 155]
1000 to 10000 nM | 1000 to 10000 nM | Cc1c(O)c(-c2nc(C(=O)N(C)C)c3cc(N4CCNCC4)ccc3n2)cc2cn(C)nc12 [Compound 502, 2-(6-hydroxy-2,7-dimethylindazol-5-yl)-N,N-dimethyl-6-(piperazin-1-yl)quinazoline-4-carboxamide]
< 100 nM | 100 to 1000 nM | CCNC(=O)c1nc(-c2cc3cn(C)nc3c(C)c2O)nc2ccc(N3CCNCC3)cc12 [Compound 503, N-ethyl-2-(6-hydroxy-2,7-dimethylindazol-5-yl)-6-(piperazin-1-yl)quinazoline-4-carboxamide]
> 10000 nM | > 10000 nM | Cc1c(O)c(-c2nc(N(C)C)c3cc(N4CCNCC4)ccc3n2)cc2cn(C)nc12 [Compound 509, 5-[4-(dimethylamino)-6-(piperazin-1-yl)quinazolin-2-yl]-2,7-dimethylindazol-6-ol]
< 100 nM | 100 to 1000 nM | Cn1cc2cc(-c3ccc4cc(N5CCNCC5)cc(F)c4n3)cc(F)c2n1 [Compound 516, 8-fluoro-2-(7-fluoro-2-methylindazol-5-yl)-6-(piperazin-1-yl)quinoline]
